Test results: patent publication US5089623A, “Certain imidate insecticides” (Imperial Chemical Industries Plc, priority 1990, dated 1992)

Key:
Format in all cases: in vivo
[1] = test system: Cabbage Looper [Trichoplusia ni (Hubner)]; assay: Cabbage looper test (CL); details: second-instar larvae, 3-5 days, percent in solution
[2] = test system: Maize weevil [Sitophilus Zeamais (Motschulsky)]; assay: Maize weevil test (MW); details: adult weevils, treated corn seeds, 48 hours, percent in solution
Method: The compounds in Tables 1 and 2 above were tested for insecticidal activity using the following testing procedures. LC50 values, based on the results of these tests and calculated according to dosage-mortality curves, are expressed in Table 3.
Maize weevil [Sitophilus Zeamais (Motschulsky)]
Test compounds were diluted in a 50:50 acetone:water solution. Four corn seeds [Zea mays (L.)] which had been immersed in test solutions for 2-3 seconds and allowed to dry were placed in containers together with 10 adult weevils. The containers were covered and kept at a temperature of about 25° C. Mortality was recorded after 48 hours. Test concentrations ranged from 0.01% down to that at which 50% mortalilty occurred. The LC50 values are expressed below in Table 3 under the heading "MW" in terms of percent of the test compound in solution.

[3] = test system: Housefly [Musca domestica]; assay: Housefly insecticidal test (HF); details: per 25 female houseflies, 48 hours
[4] = test system: Tobacco Budworm [Heliothis virescens (Fabricius)] eggs; assay: Tobacco budworm egg test (TBW-E); details: percent in solution

| Compound | LC50 CL [1] [%] | LC50 MW [2] [%] | LC50 HF [3] [µg] | LC50 TBW E [4] [%] |
| --- | --- | --- | --- | --- |
| CC(C)C(=Nc1ccc(C(C)(C)C)cc1)OCc1ccc(F)c(Oc2ccc(Cl)cc2)c1 [Compound 301] | 0.008 | > 0.01 | > 100 | > 0.1 |
| CC(C)C(=Nc1cccc([N+](=O)[O-])c1)OCc1cccc(Oc2ccccc2)c1 [Compound 302] | 0.003 | > 0.01 | 15 | > 0.1 |
| CC(C)C(=Nc1c(F)c(F)cc(F)c1F)OCc1cccc(Oc2ccc(F)cc2)c1 [Compound 304] | 0.0024 | > 0.01 | > 100 | > 0.1 |
| CC(Br)C(=Nc1ccc2c(c1)OCO2)OCc1cccc(Oc2ccccc2)c1 (stereo not shown) [Compound 306] | 0.005 | > 0.01 | > 100 | 0.1 |
| CC(C)C(=Nc1ccc([N+](=O)[O-])c(C(F)(F)F)c1)OCc1cccc(Oc2ccccc2)c1 [Compound 307] | 0.002 | > 0.01 | > 100 | 0.08 |
| CC(C)C(=Nc1ccc(F)c(I)c1)OCc1ccc(F)c(Oc2ccccc2)c1 [Compound 334] | 0.0007 | > 0.01 | 9 | 0.013 |
| CC(C)c1ccc(N=C(OCc2cccc(Oc3ccccc3)c2)C2CCC2)cc1 [Compound 339] | 0.017 | > 0.01 | > 100 | > 0.1 |
| CC(C)C(=Nc1ccc(Cl)c(C(F)(F)F)c1)OCc1ccc(F)c(Oc2ccc(F)cc2)c1 [Compound 340] | 0.00037 | 0.0069 | 34 | 0.04 |
| CC(C)C(=Nc1cccc(Cl)c1)OCc1ccc(F)c(Oc2ccc(F)cc2)c1 [Compound 341] | 0.0005 | > 0.01 | 4 | 0.023 |
| CC(C)C(=Nc1cccc(F)c1)OCc1ccc(F)c(Oc2ccc(F)cc2)c1 [Compound 342] | 0.0008 | > 0.01 | 4.1 | 0.04 |
| Cc1ccc(Oc2cccc(COC(=Nc3ccc(C(C)(C)C)cc3)C(C)C)c2)cc1 [Compound 344] | 0.024 | > 0.01 | > 100 | > 0.1 |
| COc1ccc(Oc2cccc(COC(=Nc3ccc(C(C)(C)C)cc3)C(C)C)c2)cc1 [Compound 345] | 0.018 | > 0.01 | > 100 | > 0.1 |
| CCOc1ccc(N=C(OCc2cccc(Oc3ccccc3)c2)C(C)C)cc1Cl [Compound 368] | 0.002 | > 0.01 | < 100 | 0.04 |
| CCOc1ccc(N=C(OCc2cccc(Oc3ccccc3)c2)C(C)C)cc1 [Compound 371] | 0.0022 | > 0.01 | < 100 | > 0.1 |
| CCOc1ccc(N=C(OCc2ccc(F)c(Oc3ccc(Cl)cc3)c2)C(C)C)cc1 [Compound 372] | > 0.1 | > 0.01 | > 100 | > 0.1 |
| CCOc1ccc(N=C(OCc2ccc(F)c(Oc3ccccc3)c2)C(C)C)cc1 [Compound 373] | > 0.1 | > 0.01 | < 100 | > 0.1 |
| CC(C)C(=Nc1ccc(I)c(Cl)c1)OCc1cccc(Oc2ccc(F)cc2)c1 [Compound 374] | 0.00058 | > 0.01 | < 100 | 0.02 |

| Compound | LC50 CL [1] [%] | LC50 MW [2] [%] | LC50 HF [3] [µg] | LC50 TBW E [4] [%] |
| --- | --- | --- | --- | --- |
| CC(C)C(=Nc1ccc(F)c(Br)c1)OCc1ccc(F)c(Oc2ccc(Cl)cc2)c1 [Compound 379] | 0.00075 | > 0.01 | < 100 | 0.02 |
| CC(C)C(=Nc1ccc(Br)c(Br)c1)OCc1ccc(F)c(Oc2ccc(F)cc2)c1 [Compound 383] | 0.00029 | > 0.01 | < 100 | 0.038 |
| CC(C)C(=Nc1ccc(Br)c(Br)c1)OCc1ccc(F)c(Oc2ccccc2)c1 [Compound 384] | > 0.1 | > 0.01 | < 100 | 0.025 |
| CC(C)C(=Nc1ccc(I)c(Cl)c1)OCc1ccc(F)c(Oc2ccc(F)cc2)c1 [Compound 385] | > 0.1 | > 0.01 | < 100 | > 0.1 |
| CC(C)C(=Nc1cccc(Br)c1)OCc1ccc(F)c(Oc2ccc(Cl)cc2)c1 [Compound 386] | 0.0012 | > 0.01 | < 100 | > 0.1 |
| CC(C)C(=Nc1ccc(Cl)c(C(F)(F)F)c1)OCc1ccc(F)c(Oc2ccccc2)c1 [Compound 388] | 0.0012 | > 0.01 | < 100 | > 0.1 |
| CC(C)C(=Nc1cccc(I)c1)OCc1cccc(Oc2ccc(Cl)cc2)c1 [Compound 389] | 0.00069 | > 0.01 | < 100 | > 0.1 |
| CC(C)C(=Nc1cccc(Cl)c1)OCc1ccc(F)c(Oc2ccc(Cl)cc2)c1 [Compound 390] | 0.0021 | > 0.01 | < 100 | 0.045 |
| CC(C)C(=Nc1ccc(C#N)cc1)OCc1ccc(F)c(Oc2ccc(Cl)cc2)c1 [Compound 392] | 0.00034 | > 0.01 | < 100 | 0.039 |
| CC(C)C(=Nc1ccc(C#N)cc1)OCc1cccc(Oc2ccc(Cl)cc2)c1 [Compound 393] | 0.00037 | > 0.01 | < 100 | > 0.1 |
| CC(C)C(=Nc1ccc(C#N)cc1)OCc1ccc(F)c(Oc2ccc(F)cc2)c1 [Compound 394] | 0.00025 | > 0.01 | < 100 | 0.05 |
| CC(C)C(=Nc1ccc(F)c(Cl)c1F)OCc1ccc(F)c(Oc2ccc(Cl)cc2)c1 [Compound 395] | < 0.1 | 0.004 | 8.6 | 0.018 |
| Cc1cc(N=C(OCc2ccc(F)c(Oc3ccc(F)cc3)c2)C(C)C)ccc1F [Compound 396] | 0.0017 | > 0.01 | < 100 | < 0.1 |
| Cc1cc(N=C(OCc2cccc(Oc3ccc(Cl)cc3)c2)C(C)C)ccc1F [Compound 397] | 0.0019 | > 0.01 | < 100 | < 0.1 |
| CC(C)C(=Nc1ccc(F)c(Br)c1)OCc1cccc(Oc2ccc(Cl)cc2)c1 [Compound 398] | < 0.1 | > 0.01 | < 100 | < 0.1 |
| Cc1cc(N=C(OCc2ccc(F)c(Oc3ccc(Cl)cc3)c2)C(C)C)ccc1F [Compound 399] | 0.0012 | > 0.01 | < 100 | 0.025 |
| Cc1cc(N=C(OCc2ccc(F)c(Oc3ccccc3)c2)C(C)C)ccc1F [Compound 400] | 0.0007 | > 0.01 | < 100 | 0.025 |
